The nature of series [1]: Cytotoxicity (CC50), MTS assay. Conditions: human. The source says: (§1) LLC/MK2 (ATCC® CCL-7), HEK-293 (ATCC® CRL-1573), HepG2 (ATCC® HB-8065), THP-1 (ATCC® TIB-202), Huh-7, RD (ATCC® CCL-136™), and C6/36 (ATCC® CRL-1660) cell lines were propagated and maintained as previously described[16],[21],[40],[53]. Reference DENV1 (16007), DENV2 (NGC, 16681), DENV3 (16562), DENV4 (1036), ZIKV (SV0127/14), and EV-A71 (BRCR) were propagated in Vero, C6/36, and R.D. cells as described[16],[21] Phumee et al.[53]. Cytotoxic concentration (CC50) of LLC/MK2, THP-1, HEK-293, HepG2, Huh-7, and R.D. cells were analyzed as previously described. […] Briefly, cells were seeded overnight and infected with each virus at the multiplicity of infection (M.O.I.) of 0.1 for 1 h. The compound was added during and after infection, and cells were incubated for 72 h. Supernatants were collected for 96-well[55] or a traditional 24-well plaque titration.
(§2) Supplementary Fig. S2. […] Briefly, cells were seeded overnight before the compound addition.
A general note: Formazan colour is commonly taken as a measure of viable cells.

Series [2] in a line: Cytotoxicity (CC50), MTS assay.
Description: as §1, §2

The test system of a further series is various cell lines. Kind of series: Cytotoxicities in various cell lines, summary. The format is cell-based. Conditions: 100 µM, most cells. As to the method:
as §2

The nature of series [3]: Cytotoxicity (CC50), MTS assay. Conditions: human.
Description: as §1, §2
This is another data set of the same source.

What is called CC50 is the concentration that lowers cell viability or growth by half.

Take `O=c1cc(-c2ccccc2)oc2c(Br)c(O)c(O)c(O)c12` [8-bromobaicalein]: the CC50 at 48 h in series [1] was greater than 100 µM; in series [2] (human) it was greater than 100 µM; in series [2] (rhesus monkey), greater than 250 µM; in series [3], greater than 100 µM. Moreover, in the series with various cell lines, the Cytotoxicity to cells result is reported as “not toxic”.

(Values after publication PMC10039358, “The 8-bromobaicalein inhibited the replication of dengue, and Zika viruses and targeted the dengue polymerase” (Scientific Reports, 2023).)
